Read-outs that look alike come from different tables or passages of the source. One block for each compound: values may come before it.
Legend:
HeLa nuclear HDACs [1] = tested on: HeLa nuclear HDACs; parameters: method as in PMID 33845233; settings: introduction, earlier work; read-out: IC50 class I HDACs; cited from earlier work
HeLa nuclear HDACs [2] = experiment: HDAC inhibition assay, HeLa nuclear extract (mixture of class I HDACs 1, 2, and 3); settings: read-out: IC50 HeLa nuclear HDACs, Boc-Lys-(AMC) substrate
SCM-1 cells = experiment: Cell viability (MTT) assay, SCM-1; format: cell-based; settings: human gastric cancer cells, read-out: IC50 of cytotoxicity SCM-1
Description: (§1) Human breast cancer MDA-MB-231 cells and gastric cancer SCM-1 cells were purchased from the American Type Culture Collection (Manasas, VA, USA). SCC2095 human oral cancer cells were kindly provided by Professor Susan R. Mallery (The Ohio State University). Normal human lung fibroblasts (NHLFs; CC-2512) were purchased from the Lonza (Walkersville, MD, USA). SCM-1 cells were maintained in RPMI-1640 medium (Invitrogen, Carlsbad, CA, USA); MDA-MB-231 and SCC2095 cells were maintained in DMEM/F12 (Invitrogen); and NHLFs were maintained in FGM™-2 medium (Lonza) with 2% serum, supplemented with 10% heat-inactivated foetal bovine serum (FBS; Gibco, Grand Island, NY, USA). All cells were cultured at 37 °C in a humidified incubator containing 5% CO2 and 95% relative humidity.
(§2) To assess cell viability, cells were seeded in three replicates into 96-well plates at a density of 5×10^3/well for 24 h following incubation with compounds at the indicated concentrations. Then, cell viability was assessed with 3–(4,5-dimethylthiazol-2-yl)-2,5-diphenyltetrazolium bromide (MTT) solution (0.5 mg/mL) for 4h as described previously. After removing the medium, 200 µL of DMSO was added, and then the absorbance was measured at 570 nm using a plate reader (BMG LABTECH, Germany).

MDA-MB-231 cells = experiment: Cell viability (MTT) assay, MDA-MB-231; format: cell-based; settings: human breast cancer cells, read-out: IC50 of cytotoxicity MDA-MB-231
Description: as §1, §2

HDAC8 = target: T1, HDAC8 (Homo sapiens, UniProt Q9BY41); parameters: method as in PMID 33570940; settings: cited from earlier work
T1 sequence (Q9BY41 1-377): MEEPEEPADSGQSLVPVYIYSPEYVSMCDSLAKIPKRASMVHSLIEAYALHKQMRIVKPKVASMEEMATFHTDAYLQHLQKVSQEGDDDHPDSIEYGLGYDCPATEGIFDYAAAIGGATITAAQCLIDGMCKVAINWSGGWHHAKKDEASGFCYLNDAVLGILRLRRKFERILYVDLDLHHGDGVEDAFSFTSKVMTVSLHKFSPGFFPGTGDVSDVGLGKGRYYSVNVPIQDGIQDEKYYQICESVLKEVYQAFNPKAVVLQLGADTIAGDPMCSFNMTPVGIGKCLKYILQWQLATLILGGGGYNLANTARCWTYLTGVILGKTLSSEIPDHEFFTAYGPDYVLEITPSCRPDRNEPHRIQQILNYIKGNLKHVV

- IC50 (HeLa nuclear HDACs [2]): 100 ± 20 nM
Structure (SMILES): NC(=O)c1ccc2c(c1)N(Cc1ccc(C(=O)NO)cc1)c1ccccc1S2 [LH4f, reference compound]
- IC50 (HeLa nuclear HDACs [1]): 100 nM

Structure (SMILES): CC(=O)O[C@H]1C(=O)[C@@]2(C)[C@H]([C@H](OC(=O)c3ccccc3)[C@]3(O)C[C@H](OC(=O)[C@H](O)[C@@H](NC(=O)c4ccccc4)c4ccccc4)C(C)=C1C3(C)C)[C@]1(OC(C)=O)CO[C@@H]1C[C@@H]2O [Paclitaxel, reference compound]
- IC50 (SCM-1 cells): 80 ± 10 nM

Structure (SMILES): CC/C(=C(\c1ccccc1)c1ccc(OCCN(C)C)cc1)c1ccccc1 [Tamoxifen, reference compound]
- IC50 (MDA-MB-231 cells): 11.4 ± 0.9 µM

Structure (SMILES): O=C(NO)c1ccc(CN2C(=O)c3ccccc3S2(=O)=O)cc1-c1ccccc1 [Compound 1]
- IC50 (HDAC8): 70 nM

Source: paper PMC11423540, “Synthesis and biological evaluation of ortho-phenyl phenylhydroxamic acids containing phenothiazine with improved selectivity for class IIa histone deacetylases” (Journal of Enzyme Inhibition and Medicinal Chemistry, 2024)
